Assays:
HCC38 [1] = assay: Anticancer activity against human HCC38 cells assessed as cell growth inhibition by MTT assay; assay type: functional, cell-based
MDA-MB-231 [2] = assay: cells; settings: Homo sapiens
MDA-MB-468 [3] = assay: Anticancer activity against human MDA-MB-468 cells assessed as cell growth inhibition by MTT assay; assay type: functional, cell-based
HCC1937 [4] = assay: Anticancer activity against human HCC1937 cells assessed as cell growth inhibition by MTT assay; assay type: functional, cell-based
BT-549 [5] = assay: Anticancer activity against human BT-549 cells assessed as cell growth inhibition by MTT assay; assay type: functional, cell-based
MDA-MB-436 [6] = assay: Anticancer activity against human MDA-MB-436 cells assessed as cell growth inhibition incubated for 24 hrs by MTT assay; assay type: functional, cell-based; settings: MDA-MB-436, 24 h
MDA-MB-231 [7] = assay: Anticancer activity against human MDA-MB-231 cells assessed as cell growth inhibition incubated for 72 hrs by MTT assay; assay type: functional, cell-based; settings: MDA-MB-231, 72 h
MDA-MB-231 [8] = assay: Anticancer activity against human MDA-MB-231 cells assessed as cell growth inhibition incubated for 24 hrs by MTT assay; assay type: functional, cell-based; settings: MDA-MB-231, 24 h
[9] = molecular target: Eukaryotic elongation factor 2 kinase (Homo sapiens, UniProt O00418); assay: Inhibition of eEF2K (unknown origin) by western blot analysis
Eukaryotic elongation factor 2 kinase, sequence (O00418 whole entry): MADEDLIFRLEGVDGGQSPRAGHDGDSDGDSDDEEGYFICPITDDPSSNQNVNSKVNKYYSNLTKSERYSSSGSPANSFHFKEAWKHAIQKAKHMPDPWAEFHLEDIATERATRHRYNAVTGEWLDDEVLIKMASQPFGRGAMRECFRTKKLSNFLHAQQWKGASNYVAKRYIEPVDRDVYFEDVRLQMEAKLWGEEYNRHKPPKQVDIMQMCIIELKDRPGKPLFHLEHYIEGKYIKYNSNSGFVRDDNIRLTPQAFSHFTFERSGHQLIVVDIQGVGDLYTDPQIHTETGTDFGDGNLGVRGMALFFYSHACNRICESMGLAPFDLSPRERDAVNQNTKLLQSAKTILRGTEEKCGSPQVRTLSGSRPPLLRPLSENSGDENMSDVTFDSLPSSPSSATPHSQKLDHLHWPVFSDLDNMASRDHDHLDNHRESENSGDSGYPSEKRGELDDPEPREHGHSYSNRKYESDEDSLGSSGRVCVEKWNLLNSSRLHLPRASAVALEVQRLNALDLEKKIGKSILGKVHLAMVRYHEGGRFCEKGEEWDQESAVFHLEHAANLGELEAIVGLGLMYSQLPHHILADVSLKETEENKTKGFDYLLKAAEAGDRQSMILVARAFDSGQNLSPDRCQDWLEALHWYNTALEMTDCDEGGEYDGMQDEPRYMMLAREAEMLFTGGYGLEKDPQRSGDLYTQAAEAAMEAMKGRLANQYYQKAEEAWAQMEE

[10] = molecular target: Plasminogen activator inhibitor 1 (Homo sapiens) (UniProt P05121)
Plasminogen activator inhibitor 1 (Homo sapiens), sequence (P05121 whole entry): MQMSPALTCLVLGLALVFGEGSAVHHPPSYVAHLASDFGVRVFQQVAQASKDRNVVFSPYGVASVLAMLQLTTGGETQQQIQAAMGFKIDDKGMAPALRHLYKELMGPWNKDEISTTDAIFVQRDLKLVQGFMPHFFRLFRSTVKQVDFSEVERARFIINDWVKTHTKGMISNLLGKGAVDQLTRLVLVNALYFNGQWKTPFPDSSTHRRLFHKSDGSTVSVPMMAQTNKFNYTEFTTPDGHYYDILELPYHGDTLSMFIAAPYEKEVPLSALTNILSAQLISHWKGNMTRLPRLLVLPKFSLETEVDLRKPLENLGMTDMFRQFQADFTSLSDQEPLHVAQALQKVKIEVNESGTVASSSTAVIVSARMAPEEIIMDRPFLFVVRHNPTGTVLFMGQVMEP

HCC1806 [11] = assay: Anticancer activity against human HCC1806 cells assessed as cell growth inhibition incubated for 48 hrs by SRB assay; assay type: functional, cell-based; settings: HCC1806, 48 h
MDA-MB-436 [12] = assay: Anticancer activity against human MDA-MB-436 cells assessed as cell growth inhibition by crystal violet staining based haemocytometer analysis; assay type: functional
HCC38 [13] = assay: Anticancer activity against human HCC38 cells assessed as cell growth inhibition by crystal violet staining based haemocytometer analysis; assay type: functional
MDA-MB-231 [14] = assay: Anticancer activity against human MDA-MB-231 cells assessed as cell growth inhibition by crystal violet staining based haemocytometer analysis; assay type: functional
HCC1806 [15] = assay: Anticancer activity against human HCC1806 cells assessed as cell growth inhibition incubated for 24 hrs by MTS assay; assay type: functional, cell-based; settings: HCC1806, 24 h
HCC1937 [16] = assay: Anticancer activity against human HCC1937 cells assessed as cell growth inhibition incubated for 24 hrs by MTS assay; assay type: functional, cell-based; settings: HCC1937, 24 h
Hs-578T [17] = assay: Anticancer activity against human Hs-578T cells assessed as cell growth inhibition incubated for 72 hrs by MTT assay; assay type: functional, cell-based
HCC70 = assay: Anticancer activity against human HCC70 cells assessed as cell growth inhibition incubated for 72 hrs by MTT assay; assay type: functional, cell-based; settings: HCC70, 72 h
HCC1937 [18] = assay: Anticancer activity against human HCC1937 cells assessed as cell growth inhibition incubated for 72 hrs by MTT assay; assay type: functional, cell-based; settings: HCC1937, 72 h
MDA-MB-231 [19] = assay: cells; settings: Homo sapiens, MDA-MB-231, 48 h
MDA-MB-468 [20] = assay: Anticancer activity against human MDA-MB-468 cells assessed as cell growth inhibition incubated for 48 hrs by MTT assay; assay type: functional, cell-based; settings: MDA-MB-468, 48 h
MDA-MB-231 [21] = assay: Anticancer activity against human MDA-MB-231 cells assessed as cell growth inhibition by MTT assay; assay type: functional, cell-based
[22] = molecular target: Proto-oncogene tyrosine-protein kinase Src (Homo sapiens, UniProt P12931); assay: Inhibition of human SRC by microplate reader analysis
Proto-oncogene tyrosine-protein kinase Src, sequence (P12931 2-536 limits assumed): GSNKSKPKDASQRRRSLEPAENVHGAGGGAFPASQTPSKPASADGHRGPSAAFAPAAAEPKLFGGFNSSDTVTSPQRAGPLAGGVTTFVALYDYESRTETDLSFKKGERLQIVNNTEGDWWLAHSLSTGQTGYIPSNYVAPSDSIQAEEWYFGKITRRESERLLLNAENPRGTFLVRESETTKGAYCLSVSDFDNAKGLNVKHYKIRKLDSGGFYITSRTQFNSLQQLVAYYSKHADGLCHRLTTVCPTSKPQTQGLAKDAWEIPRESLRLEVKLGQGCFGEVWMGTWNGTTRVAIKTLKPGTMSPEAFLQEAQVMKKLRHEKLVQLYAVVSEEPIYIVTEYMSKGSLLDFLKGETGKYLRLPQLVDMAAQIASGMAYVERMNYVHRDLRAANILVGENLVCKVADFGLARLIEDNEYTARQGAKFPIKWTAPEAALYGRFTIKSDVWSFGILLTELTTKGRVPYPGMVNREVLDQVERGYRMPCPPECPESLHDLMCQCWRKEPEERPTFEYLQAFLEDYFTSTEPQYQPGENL

Hs-578T [23] = assay: Anticancer activity against human Hs-578T cells assessed as cell growth inhibition by MTS assay; assay type: functional, cell-based
BT-549 [24] = assay: Anticancer activity against human BT-549 cells assessed as cell growth inhibition by MTS assay; assay type: functional, cell-based
MDA-MB-231 [25] = assay: Anticancer activity against human MDA-MB-231 cells assessed as cell growth inhibition by MTS assay; assay type: functional, cell-based
[26] = Inhibition of cIAP1 (unknown origin); set-up: species or system Homo sapiens
Interleukin-8 = Interleukin-8 (Homo sapiens, UniProt P10145); assay: Inhibition of human IL-8 by ELISA assay
Interleukin-8, sequence (P10145 whole entry): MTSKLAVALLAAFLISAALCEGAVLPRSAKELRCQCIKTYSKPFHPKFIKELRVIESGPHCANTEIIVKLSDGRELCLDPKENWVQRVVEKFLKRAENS

BT-549 [27] = assay: Anticancer activity against human BT-549 cells assessed as cell growth inhibition incubated for 72 hrs by CCK-8 assay; assay type: functional, cell-based; settings: BT-549, 72 h
MDA-MB-231 [28] = assay: Anticancer activity against human MDA-MB-231 cells assessed as cell growth inhibition incubated for 72 hrs by CCK-8 assay; assay type: functional, cell-based; settings: MDA-MB-231, 72 h
Hs-578T [29] = assay: Anticancer activity against human Hs-578T cells assessed as cell growth inhibition incubated for 72 hrs by CCK-8 assay; assay type: functional, cell-based
[30] = molecular target: Protein SET (Homo sapiens) (UniProt Q01105); assay: Inhibition of SET (unknown origin)
Protein SET (Homo sapiens), sequence (Q01105 whole entry): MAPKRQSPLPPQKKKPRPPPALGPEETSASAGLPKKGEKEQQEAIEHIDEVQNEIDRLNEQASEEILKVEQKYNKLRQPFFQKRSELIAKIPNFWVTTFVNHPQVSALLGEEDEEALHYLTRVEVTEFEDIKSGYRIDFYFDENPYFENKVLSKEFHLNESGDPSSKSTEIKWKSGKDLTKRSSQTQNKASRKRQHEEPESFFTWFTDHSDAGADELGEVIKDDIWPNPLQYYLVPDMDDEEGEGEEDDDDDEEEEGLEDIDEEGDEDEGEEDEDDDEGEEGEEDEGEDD

## O=C(NC[C@H](O)CN1CCc2ccccc2C1)c1cc(NC2COC2)ncn1
HCC38 [1]
  IC50: 5 µM
MDA-MB-231 [2]
  IC50: 60 µM
MDA-MB-468 [3]
  IC50: 1 µM

## Cc1cc(C=C2C(=O)C=CC2=O)cc(C)c1O
HCC1937 [4]
  IC50: 51.1 µM
BT-549 [5]
  IC50: 27.5 µM

## Cc1nc(NCc2ccccc2F)ncc1C(=O)NCc1cccs1
MDA-MB-436 [6]
  IC50: 7.89 µM

## C=Cc1c(C)c2cc3nc(c4c5nc(cc6[nH]c(cc1[nH]2)c(C)c6CC)C(C)=C5C(=O)[C@@H]4C(=O)OC)C(CCC(=O)O)=C3C
MDA-MB-231 [7]
  IC50: 6.5 µM

## C=C1[C@H]2[C@@H](/C(=C/C)C(=O)[C@H]2CC(=O)C(C)CC)[C@H](C(C)C)N[C@H]1CC(=O)/C=C(\C)CC (stereo not given in full)
MDA-MB-231 [8]
  IC50: 5 µM

## CC1=CC(=O)C(C(C)C)=CC1=O [THYMOQUINONE]
[9]
  IC50: 8.2 µM

## O=C(O)C(=O)c1cn(Cc2ccccc2)c2ccc(-c3ccc(OC(F)(F)F)cc3)cc12
[10]
  IC: 5 µM

## C[C@H]1[C@H](C)CC[C@]2(C(=O)N3CCNCC3)CC[C@]3(C)C(=CC[C@@H]4[C@@]5(C)Cc6cn[nH]c6C(C)(C)[C@@H]5CC[C@]43C)[C@H]12
HCC1806 [11]
  IC50: 7 µM

## CC(=O)N1c2ccccc2Oc2ccccc21
MDA-MB-231 [8]
  IC50: 0.3 µM

## CC(=O)c1c(C)c2cnc(Nc3ccc(N4CCNCC4)cn3)nc2n(C2CCCC2)c1=O [PALBOCICLIB]
MDA-MB-436 [12]
  EC50: 5 µM
HCC38 [13]
  EC50: 1.4 µM
MDA-MB-231 [14]
  EC50: 0.3 µM

## COC(=O)[C@@H](O)[C@](O)(CCC(C)C)C(=O)O[C@@H]1C(OC)=C[C@]23CCCN2CCc2cc4c(cc2[C@H]13)OCO4
HCC1806 [15]
  IC50: 0.1 µM
HCC1937 [16]
  IC50: 0.5 µM

## C[C@@H]1COC(Nc2ccc3ncnc(Nc4ccc(OCc5nccs5)c(Cl)c4)c3c2)=N1 [VARLITINIB]
Hs-578T [17]
  IC50: 10 µM
HCC70
  IC50: 10 µM
HCC1937 [18]
  IC50: 20 µM

## Cc1c(-c2ccc(O)cc2)n(Cc2ccc(OCCN3CCCCCC3)cc2)c2ccc(O)cc12 [BAZEDOXIFENE]
MDA-MB-231 [19]
  IC50: 7.45 µM
MDA-MB-468 [20]
  IC50: 3.14 µM

## O=C(/C=C/c1ccc(O)c(O)c1)O[C@@H]1C[C@](OC(=O)/C=C/c2ccc(O)c(O)c2)(C(=O)O)C[C@@H](O)[C@H]1O [1,5-O-TRANS-DICAFFEOYLQUINIC ACID]
MDA-MB-231 [21]
  IC50: 81.9 µM

## Cc1nc2c(c(C)c1O)CC(=O)N2
[22]
  IC50: 3.23 µM

## COC(=O)Nc1nc2cc(C(=O)c3ccc(F)cc3)ccc2[nH]1 [FLUBENDAZOLE]
MDA-MB-231 [8]
  IC50: 0.5 µM
Hs-578T [23]
  IC50: 0.125 µM
BT-549 [24]
  IC50: 0.125 µM
MDA-MB-231 [25]
  IC50: 0.25 µM

## CN[C@@H](C)C(=O)N[C@H](C(=O)N1CCC[C@H]1c1nc(C(=O)c2ccc(F)cc2)cs1)C1CCCCC1 [LCL-161]
[26]
  IC50: 0.0004 µM

## COc1ccc2cc3[n+](cc2c1OC)CCc1cc2c(cc1-3)OCO2 [BERBERINE]
Interleukin-8
  IC50: 50 µM

## C=C1C(=O)O[C@@H]2C[C@@]3(C)CCC[C@H](C)C3=C[C@H]12 [HELENINE]
MDA-MB-231 [8]
  IC50: 15 µM

## CO[C@H]1/C=C\C=C(/C)C(=O)NC2=CC(=O)C(NCCN(C)C)=C(C[C@@H](C)C[C@H](OC)[C@H](O)[C@@H](C)/C=C(\C)[C@@H]1OC(N)=O)C2=O [ALVESPIMYCIN]
BT-549 [27]
  IC50: 17.1 µM
MDA-MB-231 [28]
  IC50: 45.7 µM
Hs-578T [29]
  IC50: 0.0084 µM

## C#Cc1cccc(Nc2nc(Nc3ccc(Oc4ccccc4)cc3)nc3cc(OC)c(OC)cc23)c1
[30]
  IC: 3 µM
